According to the OPERA property sets (Mansouri et al. 2018):
Peptide text beside a SMILES is read from it. * marks the point of attachment. Boc = CC(C)(C)OC(=O)*

First: Nc1ncnc2ncn(C(c3ccccc3)c3ccccc3)c12
Second: c1ccc(P(c2ccccc2)c2ccccc2)cc1
The logP of the first is lower: 3.19 for the first, 5.69 for the second.

First: NCCCCCc1ccncc1
Second: CC(=O)c1ccncc1
The logP of the first is higher: 1.4 for the first, 0.48 for the second.

COc1ccc(-c2nc3cnccc3n2C)c(OC)c1 and COc1cccc(C)c1 are the same in logP: 2.66 for the first, 2.66 for the second.

First: Cc1ccno1
Second: C[Si](C)(C)c1ccccc1
The logP of the first is lower: 0.45 for the first, 4.72 for the second.

Compared with C=CC(N)=O, CC(=O)c1ccc(S(N)(=O)=O)cc1 is higher in logP: -0.67 for the first, 0.2 for the second.

First: O=Nc1ccccc1
Second: O=C(NO)c1ccccc1
The logP of the first is higher: 2.01 for the first, 0.26 for the second.

O=C(O)c1ccc(C(F)(F)F)cc1 and Cc1ccc(NC(=O)c2ccccc2)c(O)c1 are within 0.2 log units of each other in logP: 3.1 for the first, 3.08 for the second.

First: Oc1ccccc1Br
Second: Brc1ccccc1Br
The logP of the first is lower: 2.35 for the first, 3.64 for the second.

Compared with Clc1cc(Cl)c(-c2cccc(Cl)c2Cl)cc1Cl, O=C1Nc2ccccc2C1=O is lower in logP: 6.67 for the first, 0.83 for the second.

First: CC(C)CCC(=O)c1ccoc1
Second: CC(C)N(C(=O)CCl)c1ccccc1
The logP of the first is higher: 2.76 for the first, 2.18 for the second.

Compared with CC(=O)N(c1ccc(N2CCOCC2)nn1)n1c(C)ccc1C, CN1CCN(C2=Nc3cc(Cl)ccc3Nc3ccccc32)CC1 is higher in logP: 1.64 for the first, 3.23 for the second.

First: CC1CN1C1=CC(=O)C(N2CC2C)=CC1=O (stereo unspecified)
Second: CN1C(=O)CCC1=O
The logP of the first is higher: 1.07 for the first, -0.95 for the second.

First: CC(C)c1ccc([N+](=O)[O-])cc1
Second: NC(Cc1ccc([N+](=O)[O-])cc1)C(=O)O (stereo unspecified)
The logP of the first is higher: 3.45 for the first, -1.25 for the second.

O=C1CN=C(c2ccccc2F)c2ccccc2N1 and O=C1CN=C(c2ccccc2)c2cc(F)ccc2N1 are within 0.2 log units of each other in logP: 2.38 for the first, 2.32 for the second.

Going from CN(C)CCOC(=O)c1ccc(C#N)cc1 to CCOC(=O)c1ccc(NC(=O)N(C)OC)cc1, the logP rises from 1.43 to 2.24.

Going from O=c1oc2ccccc2c(O)c1Cc1c(O)c2ccccc2oc1=O to O=c1c2ccccc2oc2ccccc12, the logP rises from 2.07 to 3.39.

First: CCCCSCS(=O)CC(C)NC(=O)C=Cc1c(C)[nH]c(=O)[nH]c1=O (stereo unspecified)
Second: CC(=O)N[C@@H](CC(C)C)C(=O)N[C@@H](CC(N)=O)C(N)=O
The logP of the first is higher: 0.82 for the first, -1.3 for the second.

First: Cc1cccc(O)c1
Second: COc1ccc(C)cc1N
The logP of the first is higher: 1.96 for the first, 1.74 for the second.

First: CCC1(c2ccccc2)C(=O)NC(=O)N(C)C1=O (stereo unspecified)
Second: O=C(O)CONC(=O)c1ccccc1
The logP of the first is higher: 1.84 for the first, -0.27 for the second.

Compared with CC(=O)OCC1CCC(n2cnc3c(=O)[nH]cnc32)O1 (stereo unspecified), CC(=O)O[C@]1(C(C)=O)CC[C@H]2[C@@H]3C[C@H](C)C4=CC(=O)C=C[C@]4(C)[C@@]3(F)[C@@H](O)C[C@@]21C is higher in logP: -0.9 for the first, 1.5 for the second.

Going from Cc1ccc(/C(=C\CN2CCCC2)c2ccccn2)cc1 to CC(C)(C)C1(O)CCN2CC3c4ccccc4CCc4cccc(c43)C2C1 (stereo unspecified), the logP rises from 3.92 to 5.2.

Compared with c1ccoc1, c1cocn1 is lower in logP: 1.34 for the first, 0.12 for the second.

Going from CC(C)(O)C(Cl)(Cl)Cl to CC(C)C(NC(=O)C(Cc1ccccc1)NC(=O)OC(C)(C)C)C(=O)O (stereo not drawn) (Boc-Phe-Val-OH; configuration not given here), the logP rises from 2.03 to 2.88.

First: CCC1OC(=O)C(C)C(OC2CC(C)(OC)C(O)C(C)O2)C(C)C(OC2OC(C)CC(N(C)C)C2O)C(C)(O)CC(C)C(=O)C(C)C(O)C1C (stereo unspecified)
Second: COC(COC(N)=O)C1=C(N2CC2)C(=O)C(C)=C(N2CC2)C1=O (stereo unspecified)
The logP of the first is higher: 3.12 for the first, -0.15 for the second.

First: c1ccc2c(c1)CCC2
Second: CNc1ccccc1[N+](=O)[O-]
The logP of the first is higher: 3.18 for the first, 2.18 for the second.

Going from c1ccc2c(c1)[nH]c1ccccc12 to CCC(OC(C)=O)C(CC(C)N(C)C)(c1ccccc1)c1ccccc1 (stereo unspecified), the logP rises from 3.72 to 4.27.

Going from Nc1nnco1 to CCOC(=O)c1cccs1, the logP rises from -1.44 to 2.33.

First: Cc1ccc2cc(C)c(C)cc2c1
Second: Cc1ccc(/N=C/N(C)/C=N/c2ccc(C)cc2C)c(C)c1
The logP of the first is lower: 4.73 for the first, 5.5 for the second.

Going from N#CCC(=O)c1ccccc1 to O=C(O)COc1cccc(Cl)c1, the logP rises from 0.97 to 2.03.

Compared with Nc1cc([N+](=O)[O-])ccc1C(=O)O, OCCCc1ccccn1 is lower in logP: 1.91 for the first, 0.58 for the second.

Work on O=C(NCC(O)CO)c1c(I)c(N(CCO)C(=O)CO)c(I)c(N(CCO)C(=O)CO)c1I (stereo unspecified) yielded a logP of -2.55.
